Molecular target: T1, E-selectin (Homo sapiens, UniProt P16581)
T1 sequence (P16581 whole entry): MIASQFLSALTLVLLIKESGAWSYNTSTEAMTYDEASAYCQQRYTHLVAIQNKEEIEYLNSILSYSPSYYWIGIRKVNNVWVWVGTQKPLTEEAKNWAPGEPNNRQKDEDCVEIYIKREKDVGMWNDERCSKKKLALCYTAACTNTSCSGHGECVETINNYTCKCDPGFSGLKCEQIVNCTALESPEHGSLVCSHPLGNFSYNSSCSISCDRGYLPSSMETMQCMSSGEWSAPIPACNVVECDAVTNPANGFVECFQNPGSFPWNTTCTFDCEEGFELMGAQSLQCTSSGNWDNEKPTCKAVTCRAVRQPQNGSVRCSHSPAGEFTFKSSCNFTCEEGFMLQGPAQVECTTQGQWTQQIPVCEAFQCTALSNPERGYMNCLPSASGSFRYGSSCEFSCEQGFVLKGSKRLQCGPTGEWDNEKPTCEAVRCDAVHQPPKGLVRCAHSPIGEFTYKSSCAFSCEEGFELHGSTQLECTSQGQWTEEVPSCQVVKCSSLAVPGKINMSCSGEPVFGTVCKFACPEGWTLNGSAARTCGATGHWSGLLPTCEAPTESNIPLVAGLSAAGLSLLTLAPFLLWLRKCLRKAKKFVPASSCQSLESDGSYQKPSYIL
Test: Inhibitory activity against Selectin E

For `CC(=O)N[C@H]1[C@H]([C@H](O)[C@H](O)CO)O[C@@](O[C@H]2[C@@H](O)[C@@H](CO)O[C@@H](O[C@@H]([C@H](O[C@@H]3O[C@@H](C)[C@@H](O)[C@@H](O)[C@@H]3O)[C@H](C=O)NC(C)=O)[C@H](O)CO)[C@@H]2O)(C(=O)O)C[C@@H]1O` [SIALYL LEWIS X], the IC50 was < 1000 µM.
